The values that follow come from patent publication US12583858B2 (Genentech, Inc., priority 2015, dated 2026).

The EC50 is the concentration giving half of the maximal effect.

In the assay the target is T1, TDO2 (Homo sapiens, UniProt P48775).
T1 construct: decreased levels of NFK in SW48 cells (high TDO expressing cells)
T1 sequence (P48775 whole entry): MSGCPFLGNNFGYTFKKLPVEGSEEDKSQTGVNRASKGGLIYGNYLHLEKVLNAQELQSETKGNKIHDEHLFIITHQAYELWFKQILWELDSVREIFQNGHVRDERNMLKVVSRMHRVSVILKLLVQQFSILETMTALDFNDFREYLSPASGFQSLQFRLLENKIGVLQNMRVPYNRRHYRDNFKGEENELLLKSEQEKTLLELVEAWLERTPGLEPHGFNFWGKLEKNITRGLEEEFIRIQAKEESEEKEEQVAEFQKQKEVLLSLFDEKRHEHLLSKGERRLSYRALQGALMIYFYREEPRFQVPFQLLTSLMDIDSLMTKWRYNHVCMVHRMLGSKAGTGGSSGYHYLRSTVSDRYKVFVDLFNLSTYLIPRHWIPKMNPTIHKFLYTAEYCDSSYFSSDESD
In words: TDO2 cell assay (NFK GreenScreen, SW48 cells). Format: cell-based. Particulars: SW48 cells (high TDO expressing), 200 uM tryptophan, 24 hours; Table 3; read-out: TDO2 Cell Fluor EC50.
Procedure: The NFK GreenScreen™ (NTRC, Netherlands) uses a specific chemical probe that binds to N-Formylkynurenine (NFK), a product of tryptophan catabolism facilitated by IDO or TDO and causes fluorescence at 510 nm when excited at 410 nm. […] The assay is multiplexed with Cell Titer-Glo® (Promega) to determine if compounds are cytotoxic. […] Cells are counted on a Vi-Cell (Beckman Coulter). SW48 cells are diluted to 1×10^6 cells/ml in assay media. A172 cells are diluted to 0.24×10^6 cells/ml in assay media. […] 5 ul of assay media containing 1.2 mM tryptophan are added to the SW48 cells for a final concentration of 200 uM tryptophan in each well. 5 ul of assay media containing 600 uM tryptophan and 600 ng/ml IFNγ are added to the A172 cells for a final concentration of 100 uM tryptophan and 100 ng/ml IFNγ in each well. The final DMSO concentration is 0.5%. Cell plates are placed at room temperature in a closed TC hood with the blower off to allow cells to settle for approximately 30 min. Plates are then moved to an incubator set at 37° C., 5% CO2 for 24 hours. After the 24 hour compound incubation, 8 ul of NFK green reagent is added to each well with a Multidrop™ Combi dispenser (Thermo Scientific). Plates are sealed and incubated at 37° C., 5% CO2 for 5 hours, then read on a PHERAstar® (BMG labtech). Data are analyzed by normalizing to DMSO and high inhibitor controls. After the plates have been read for NFK green, 25 ul of Cell Titer-Glo® (Promega) are added to each well, incubated for 15 minutes at room temperature, and read on the Envision (Perkin Elmer). Cell Titer-Glo data are analyzed by normalizing to the DMSO controls. Four-parameter curve fitting is used and EC50 data are reported.
Turning to `O[C@@H](C1CCCCC1)[C@@H]1c2ccccc2-c2cncn21` (single isomer, unassigned) [Example 148c], the EC50 is 880 nM.
To `OC1CCOCC1C1c2cc(F)ccc2-c2cncn21` (single isomer, unassigned) [Example 75d] belongs 520 nM; to `CCS(=O)(=O)N1CCC2(CC1)CC(C1c3ccccc3-c3cncn31)C2O` (single isomer, unassigned) [Example 114a], 390 nM; to `OC1c2cnccc2CC1C1c2ccccc2-c2cncn21` (single isomer, unassigned) [Example 71bb], 490 nM.
For `CC(C)S(=O)(=O)N1CC[C@@H]([C@H]2c3ccccc3-c3cncn32)[C@H](O)C1` (single isomer, unassigned) [Example 80b] the value was 140 nM; for `N#CCN1CCC(O)C(C2c3ccccc3-c3cncn32)C1` (single isomer, unassigned) [Example 58d], above 25000 nM; for `NS(=O)(=O)N1CCC(O)C(C2c3ccccc3-c3cncn32)CC1` (single isomer, unassigned) [Example 101b, 4-hydroxy-5-(5H-imidazo[5,1-a]isoindol-5-yl)azepane-1-sulfonamide], 5100 nM.
`Cn1cc2c(n1)C(O)C(C1c3ccccc3-c3cncn31)CC2` (single isomer, unassigned) [Example 139-1f]: the EC50 was 210 nM.
For `CC(O)(c1ncc[nH]1)C1c2ccccc2-c2cncn21` (single isomer, unassigned) [Example 143a] the value was above 25000 nM; for `OC1CCCC1C1c2ccccc2-c2cncn21` (single isomer, unassigned) [Example 02h], above 25000 nM; for `CC1(C)C[C@@H](O)[C@H]1[C@H]1c2ccccc2-c2cncn21` (single isomer, unassigned) [Example 22f], 1100 nM.
To `OC1CC2(CC2)C1C1c2ccccc2-c2cncn21` (single isomer, unassigned) [Example 72c] belongs 10000 nM; to `CCS(=O)(=O)N1CC(O)(CC2c3ccccc3-c3cncn32)C1` (single isomer, unassigned) [Example 108b], above 25000 nM.
To `CS(=O)(=O)N1CCC2(CCC(C3c4ccccc4-c4cncn43)C2O)CC1` (single isomer, unassigned) [Example 180c] belongs 98 nM.
On to `CN(C)C(=O)c1ccc2c(c1)CCC(C1c3ccccc3-c3cncn31)C2O` (single isomer, unassigned) [Example 98g], for which the EC50 is 860 nM.
For `CC(C)(C)OC(=O)N1CC2(CC(C3c4ccccc4-c4cncn43)C2O)C1` (single isomer, unassigned) [Example 41c, tert-butyl 7-hydroxy-6-(5H-imidazo[1,5-b]isoindol-5-yl)-2-azaspiro[3.3]heptane-2-carboxylate] the value was 23000 nM; for `CC(C)C(O)C1c2ccc(F)cc2-c2cncn21` (single isomer, unassigned) [Example 135a], above 25000 nM; for `OC1c2nonc2CCC1C1c2ccccc2-c2cncn21` (single isomer, unassigned) [Example 163d], 54 nM.
For the compound `O[C@@H]1CCCC[C@@H]1[C@@H]1c2ccccc2-c2cncn21` [Example 03h, (1R,2R)-2-((R)-5H-imidazo[5,1-a]isoindol-5-yl)cyclohexan-1-ol], the 50% effective concentration (EC50) is 13000 nM.
For `O=S1(=O)CC(O)C(C2c3ccccc3-c3cncn32)C1` (single isomer, unassigned) [Example 38c] the value was 22000 nM.
To `CS(=O)(=O)c1ccc2c(c1)CCC(C1c3ccccc3-c3cncn31)C2O` (single isomer, unassigned) [Example 36e] belongs 2700 nM; to `OC1c2nccn2CCC1C1c2ccccc2-c2cncn21` (single isomer, unassigned) [Example 88g], 730 nM; to `OC1C(C2c3ccc(F)cc3-c3cncn32)CC12CCOCC2` (single isomer, unassigned) [Example 109d], 3700 nM.
